Usually IC50 stands for the concentration at which inhibition is half-maximal.

Common to all, as to assay: Antiproliferative activity, viable cell count (trypan blue) after 96 hours
Common to all, as to format: cell-based, human

One experiment deals with H460. Conditions: for IC50: H460, NSCLC, 96 hours, 50% growth inhibition vs DMSO, Compound 4 values above 25 μM are estimates from the plot 1-25 μM. As for the experimental part:
(§1) The antiproliferative activity of compounds 1-4 was determined in the seven types of human cancer cell lines K562 (Chronic Myelogenous Leukemia, CML), HT-29 (colon), and HL-60 (Acute Myloid Leukemia, AML), DU-145 (prostate), MCF-7 (breast), and GRANTA-519 (Mantle Cell Leukemia, MCL), and NSCL (non small cell lung carcinoma) and compared with cisplatin.
(§2) Human cancer cells were plated in twelve-well dishes at a cell density of 2.5×10^4 cells/ml/well. The cells were treated, in duplicate, 24 hours later with increasing concentrations of each compound or cisplatin from Sigma (Table 3). The total number of viable cells was determined after 96 hours later by cell counting by hemacytometer and trypan blue staining. The percentage of viable cells remaining was calculated as follows: number of viable cells (compound treated)/number of viable cells (DMSO treated)*100. Compound 1 dose response assay plot (FIG. 3) is the average percent viable cells of the treated compared to the vehicle (DMSO) treated cells. DU-145, MCF-7, HT-29, H460 cells were grown in DMEM and K562, HL-60, Granata-519 cells were grown in RPMI medium both supplemented with 10% FBS (cell Generation) and 1 unit penicillin. Cells were routinely grown and treated at 37° C. under 90% humidity. The IC50 (50% growth inhibition as compared to DMSO treated control) values in micromoles were determined by extrapolation from the dose response curves. Dose response curves were generated by plotting the percentage of cells at each concentration versus concentration tested. Compound 1 was chosen to produce more detailed growth curves based on overall highest activity profile. Similarly, cells were treated at increasing concentrations of cisplatin and detailed growth curves were generated (FIG. 4). Thus the activity of compound 1 was compared to cisplatin.

The subject of another experiment is K562. Particulars: for IC50: K562, CML, 96 hours, 50% growth inhibition vs DMSO, Compound 4 values above 25 μM are estimates from the plot 1-25 μM. The method, then: as §1, §2
The next experiment concerns MCF-7. Conditions: for IC50: MCF-7, Breast, 96 hours, 50% growth inhibition vs DMSO, Compound 4 values above 25 μM are estimates from the plot 1-25 μM. The method, then:
as §1, §2

A further experiment deals with GRANTA-519. Conditions: for IC50: GRANTA-519, MCL, 96 hours, 50% growth inhibition vs DMSO. As for the experimental part: as §1, §2
For another experiment, the system named is HL-60. Conditions: for IC50: HL-60, AML, 96 hours, 50% growth inhibition vs DMSO. The method, then:
as §1, §2

The next experiment relates to DU145. Conditions: for IC50: DU145, Prostate, 96 hours, 50% growth inhibition vs DMSO. The method, then: as §1, §2
The next experiment deals with HT-29. Particulars: for IC50: HT-29, Colon, 96 hours, 50% growth inhibition vs DMSO, Compound 4 values above 25 μM are estimates from the plot 1-25 μM. The method, then: as §1, §2

For `N.N.[Cl][Pt][Cl]` [Cisplatin, reference compound], the IC50 in the experiment with H460 is 750 nM; in the experiment on K562, 1500 nM; in the experiment with MCF-7, 1500 nM; with GRANTA-519 it was 250 nM; with HL-60 it was 750 nM; in the experiment with DU145, 1000 nM. Also, the IC50 in the experiment with HT-29 was 3000 nM.
As to `CC1=C2[O][Ru-]3(=[C]=O)(=[C]=O)([O+]=C2C=CO1)[Ru](=[C]=O)(=[C]=O)(=[C]=O)(=[C]=O)[Ru-]31(=[C]=O)(=[C]=O)[O]C2=C(C)OC=CC2=[O+]1` [Cmpd 1, [Ru3(CO)8(C12H10O6)]], the IC50 was 750 nM with H460; 300 nM in the experiment on K562; 400 nM in the experiment with MCF-7; 75 nM in the experiment with GRANTA-519; 100 nM with HL-60; 500 nM in the experiment on DU145. In addition, the 50% inhibitory concentration (IC50) in the experiment on HT-29 is 500 nM. The “anticancer activity relative to cisplatin” value in the experiment on H460 (NSCL (non small cell lung carcinoma)) was “the same as cisplatin”; in the experiment with K562 (K562, times higher than cisplatin) it was 5-7 times; with MCF-7 (MCF-7, times more potent than cisplatin), 2-3 times; in the experiment with GRANTA-519 (GRANTA-519, times more potent than cisplatin), 2-3 times; in the experiment on HL-60 (HL-60, times higher than cisplatin), 5-7 times; in the experiment on DU145 (DU-145, times more potent than cisplatin), 2-3 times. In addition, in the experiment on HT-29 (HT-29, times higher than cisplatin), the “anticancer activity relative to cisplatin” value is 5-7 times.
In the case of `CC1=C2[O][Ru-]3(=[C]=O)(=[C]=O)([O+]=C2C=CO1)[Ru](=[C]=O)(=[C]=O)(=[C]=O)([P](c1ccccc1)(c1ccccc1)c1ccccc1)[Ru-]31(=[C]=O)(=[C]=O)[O]C2=C(C)OC=CC2=[O+]1` [Cmpd 2, [Ru3(CO)7(C12H10O6)(PPh3)]], the 50% inhibitory concentration (IC50) in the experiment on H460 was 5000 nM; in the experiment with K562, 2500 nM; with MCF-7 it was 2500 nM; in the experiment with HL-60, 750 nM; with DU145, 2500 nM; in the experiment on HT-29, 5000 nM.
In the experiment on DU145, [Ru3(CO)6(C12H10O6)(dppe)] [Cmpd 4] yielded a 50% inhibitory concentration (IC50) of 10000 nM.
Regarding [Ru3(CO)6(C12H10O6)(dppm)] [Cmpd 3], the concentration for half-maximal inhibition (IC50) with H460 is 70000 nM; in the experiment on K562 it was 30000 nM; in the experiment with MCF-7, 75000 nM; in the experiment with HL-60, 25000 nM; in the experiment with DU145, 25000 nM; in the experiment with HT-29, > 100000 nM.

These data come from US8748484B2, “Organometallic anti-cancer complexes” (Research Foundation of The City University of New York, priority 2011, dated 2014).
